From publication PMC10175095 (Therapeutic drug monitoring, 2023)
Each block holds one molecule with its values, some of them ahead of it.

Legend:
[1] = Pre-processed stability in human plasma; format: in vitro ADME; conditions: 2.5 h
[2] = Reinjection stability in final extract; format: physicochemical; conditions: reinjected, 4°C, autosampler, 25.95 h
[3] = Processed sample stability in final extract; format: physicochemical; conditions: 4°C, autosampler, 25.1 h
[4] = Freeze-thaw stability of unprocessed plasma samples; format: in vitro ADME; conditions: human plasma, 3 freeze (-80°C)-thaw cycles
[5] = Long-term stability of unprocessed plasma samples at −80°C; format: in vitro ADME; conditions: human plasma
[6] = requires confirmation in prospective studies; cited from earlier work
[7] = RT (20–25°C), yellow light, nominal 15 ng/mL
[8] = RT (20–25°C), yellow light, nominal 1500 ng/mL

Accuracy vs fresh QCs ([1]; 37°C, dark, nominal 15 ng/mL): 97.5%
Mean measured concentration ([1]; 37°C, dark, nominal 15 ng/mL): 15.4 ng/mL
Mean measured concentration ([1]; 37°C, dark, nominal 1500 ng/mL): 1527 ng/mL
Accuracy vs fresh QCs [1, 7]: 99.4%
Mean measured concentration [1, 7]: 15.7 ng/mL
Mean measured concentration [1, 8]: 1550 ng/mL
Accuracy vs fresh QCs ([2]; nominal 15 ng/mL): 98.2%
Mean measured concentration ([2]; nominal 15 ng/mL): 16.4 ng/mL
Accuracy vs fresh QCs ([2]; nominal 150 ng/mL): 98.7%
Mean measured concentration ([2]; nominal 150 ng/mL): 155 ng/mL
Accuracy vs fresh QCs ([2]; nominal 1500 ng/mL): 103%
Mean measured concentration ([2]; nominal 1500 ng/mL): 1527 ng/mL
Accuracy vs fresh QCs ([3]; nominal 15 ng/mL): 95.6%
Mean measured concentration ([3]; nominal 15 ng/mL): 15.9 ng/mL
Accuracy vs fresh QCs ([3]; nominal 1500 ng/mL): 102%
Mean measured concentration ([3]; nominal 1500 ng/mL): 1510 ng/mL
Mean measured concentration ([4]; nominal 15 ng/mL): 15.1 ng/mL
Accuracy vs fresh QCs ([4]; nominal 1500 ng/mL): 98.8%
Accuracy vs. nominal concentration ([4]; nominal 1500 ng/mL): 98.7%
Mean measured concentration ([4]; nominal 1500 ng/mL): 1480 ng/mL
Accuracy vs fresh QCs ([5]; 3 months, nominal 15 ng/mL): 98.6%
Mean measured concentration ([5]; 3 months, nominal 15 ng/mL): 14.7 ng/mL
Accuracy vs fresh QCs ([5]; 3 months, nominal 150 ng/mL): 95.5%
Mean measured concentration ([5]; 3 months, nominal 150 ng/mL): 149 ng/mL
Accuracy vs fresh QCs ([5]; 3 months, nominal 1500 ng/mL): 95.6%
Mean measured concentration ([5]; 3 months, nominal 1500 ng/mL): 1437 ng/mL
Mean measured concentration ([5]; 7 months, nominal 15 ng/mL): 14.1 ng/mL
Accuracy vs fresh QCs ([5]; 7 months, nominal 150 ng/mL): 98.9%
Mean measured concentration ([5]; 7 months, nominal 150 ng/mL): 156 ng/mL
Accuracy vs fresh QCs ([5]; 7 months, nominal 1500 ng/mL): 97.5%
Mean measured concentration ([5]; 7 months, nominal 1500 ng/mL): 1443 ng/mL
Mean measured concentration ([5]; 12 months, nominal 15 ng/mL): 15.2 ng/mL
Accuracy vs fresh QCs ([5]; 12 months, nominal 150 ng/mL): 99.0%
Mean measured concentration ([5]; 12 months, nominal 150 ng/mL): 164 ng/mL
Accuracy vs fresh QCs ([5]; 12 months, nominal 1500 ng/mL): 96.6%
Mean measured concentration ([5]; 12 months, nominal 1500 ng/mL): 1583 ng/mL
Structure (SMILES): CCN1CCN(Cc2ccc(Nc3ncc(F)c(-c4cc(F)c5nc(C)n(C(C)C)c5c4)n3)nc2)CC1 [Abemaciclib, abemaciclib]
Proposed target Cmin for TDM [6]: 200 to 210 ng/mL

Accuracy vs fresh QCs ([1]; 37°C, dark, nominal 15 ng/mL): 94.8%
Accuracy vs. nominal concentration ([1]; 37°C, dark, nominal 15 ng/mL): 103%
Mean measured concentration ([1]; 37°C, dark, nominal 15 ng/mL): 15.4 ng/mL
Accuracy vs fresh QCs ([1]; 37°C, dark, nominal 1500 ng/mL): 102%
Accuracy vs. nominal concentration ([1]; 37°C, dark, nominal 1500 ng/mL): 99.3%
Mean measured concentration ([1]; 37°C, dark, nominal 1500 ng/mL): 1490 ng/mL
Accuracy vs fresh QCs [1, 7]: 95.6%
Accuracy vs. nominal concentration [1, 7]: 104%
Mean measured concentration [1, 7]: 15.5 ng/mL
Accuracy vs fresh QCs [1, 8]: 102%
Accuracy vs. nominal concentration [1, 8]: 99.6%
Mean measured concentration [1, 8]: 1493 ng/mL
Accuracy vs fresh QCs ([2]; nominal 15 ng/mL): 100%
Accuracy vs. nominal concentration ([2]; nominal 15 ng/mL): 112%
Mean measured concentration ([2]; nominal 15 ng/mL): 16.7 ng/mL
Accuracy vs fresh QCs ([2]; nominal 150 ng/mL): 99.0%
Accuracy vs. nominal concentration ([2]; nominal 150 ng/mL): 106%
Mean measured concentration ([2]; nominal 150 ng/mL): 160 ng/mL
Accuracy vs fresh QCs ([2]; nominal 1500 ng/mL): 100%
Mean measured concentration ([2]; nominal 1500 ng/mL): 1473 ng/mL
Accuracy vs fresh QCs ([3]; nominal 15 ng/mL): 99.0%
Accuracy vs. nominal concentration ([3]; nominal 15 ng/mL): 110%
Mean measured concentration ([3]; nominal 15 ng/mL): 16.5 ng/mL
Accuracy vs fresh QCs ([3]; nominal 1500 ng/mL): 100%
Accuracy vs. nominal concentration ([3]; nominal 1500 ng/mL): 98.7%
Mean measured concentration ([3]; nominal 1500 ng/mL): 1480 ng/mL
Accuracy vs fresh QCs ([4]; nominal 15 ng/mL): 98.1%
Accuracy vs. nominal concentration ([4]; nominal 15 ng/mL): 99.8%
Mean measured concentration ([4]; nominal 15 ng/mL): 15.0 ng/mL
Accuracy vs fresh QCs ([4]; nominal 1500 ng/mL): 98.7%
Accuracy vs. nominal concentration ([4]; nominal 1500 ng/mL): 96.9%
Mean measured concentration ([4]; nominal 1500 ng/mL): 1453 ng/mL
Accuracy vs fresh QCs ([5]; 3 months, nominal 15 ng/mL): 94.0%
Accuracy vs. nominal concentration ([5]; 3 months, nominal 15 ng/mL): 99.8%
Mean measured concentration ([5]; 3 months, nominal 15 ng/mL): 15.0 ng/mL
Accuracy vs fresh QCs ([5]; 3 months, nominal 150 ng/mL): 92.8%
Accuracy vs. nominal concentration ([5]; 3 months, nominal 150 ng/mL): 102%
Mean measured concentration ([5]; 3 months, nominal 150 ng/mL): 153 ng/mL
Accuracy vs fresh QCs ([5]; 3 months, nominal 1500 ng/mL): 92.8%
Accuracy vs. nominal concentration ([5]; 3 months, nominal 1500 ng/mL): 96.0%
Mean measured concentration ([5]; 3 months, nominal 1500 ng/mL): 1440 ng/mL
Accuracy vs fresh QCs ([5]; 7 months, nominal 15 ng/mL): 92.1%
Accuracy vs. nominal concentration ([5]; 7 months, nominal 15 ng/mL): 101.3%
Mean measured concentration ([5]; 7 months, nominal 15 ng/mL): 15.2 ng/mL
Accuracy vs fresh QCs ([5]; 7 months, nominal 150 ng/mL): 85.7%
Accuracy vs. nominal concentration ([5]; 7 months, nominal 150 ng/mL): 109%
Mean measured concentration ([5]; 7 months, nominal 150 ng/mL): 163 ng/mL
Accuracy vs fresh QCs ([5]; 7 months, nominal 1500 ng/mL): 91.6%
Accuracy vs. nominal concentration ([5]; 7 months, nominal 1500 ng/mL): 92.2%
Mean measured concentration ([5]; 7 months, nominal 1500 ng/mL): 1383 ng/mL
Accuracy vs fresh QCs ([5]; 12 months, nominal 15 ng/mL): 96.4%
Accuracy vs. nominal concentration ([5]; 12 months, nominal 15 ng/mL): 104%
Mean measured concentration ([5]; 12 months, nominal 15 ng/mL): 15.6 ng/mL
Accuracy vs fresh QCs ([5]; 12 months, nominal 150 ng/mL): 95.3%
Accuracy vs. nominal concentration ([5]; 12 months, nominal 150 ng/mL): 105%
Mean measured concentration ([5]; 12 months, nominal 150 ng/mL): 157 ng/mL
Accuracy vs fresh QCs ([5]; 12 months, nominal 1500 ng/mL): 87.0%
Accuracy vs. nominal concentration ([5]; 12 months, nominal 1500 ng/mL): 108%
Mean measured concentration ([5]; 12 months, nominal 1500 ng/mL): 1613 ng/mL
Structure (SMILES): CC(=O)c1c(C)c2cnc(Nc3ccc(N4CCNCC4)cn3)nc2n(C2CCCC2)c1=O [Palbociclib, palbociclib]

Accuracy vs fresh QCs ([1]; 37°C, dark, nominal 15 ng/mL): 97.8%
Accuracy vs. nominal concentration ([1]; 37°C, dark, nominal 15 ng/mL): 106%
Mean measured concentration ([1]; 37°C, dark, nominal 15 ng/mL): 15.9 ng/mL
Accuracy vs fresh QCs ([1]; 37°C, dark, nominal 1500 ng/mL): 102%
Accuracy vs. nominal concentration ([1]; 37°C, dark, nominal 1500 ng/mL): 100%
Mean measured concentration ([1]; 37°C, dark, nominal 1500 ng/mL): 1500 ng/mL
Accuracy vs fresh QCs [1, 7]: 98.0%
Accuracy vs. nominal concentration [1, 7]: 106%
Mean measured concentration [1, 7]: 15.9 ng/mL
Accuracy vs fresh QCs [1, 8]: 102%
Accuracy vs. nominal concentration [1, 8]: 100%
Mean measured concentration [1, 8]: 1503 ng/mL
Accuracy vs fresh QCs ([2]; nominal 15 ng/mL): 97.8%
Accuracy vs. nominal concentration ([2]; nominal 15 ng/mL): 110%
Mean measured concentration ([2]; nominal 15 ng/mL): 16.5 ng/mL
Accuracy vs fresh QCs ([2]; nominal 150 ng/mL): 101%
Accuracy vs. nominal concentration ([2]; nominal 150 ng/mL): 107%
Mean measured concentration ([2]; nominal 150 ng/mL): 161 ng/mL
Accuracy vs fresh QCs ([2]; nominal 1500 ng/mL): 101%
Accuracy vs. nominal concentration ([2]; nominal 1500 ng/mL): 100%
Mean measured concentration ([2]; nominal 1500 ng/mL): 1503 ng/mL
Accuracy vs fresh QCs ([3]; nominal 15 ng/mL): 99.2%
Accuracy vs. nominal concentration ([3]; nominal 15 ng/mL): 112%
Mean measured concentration ([3]; nominal 15 ng/mL): 16.7 ng/mL
Accuracy vs fresh QCs ([3]; nominal 1500 ng/mL): 99.8%
Accuracy vs. nominal concentration ([3]; nominal 1500 ng/mL): 98.7%
Mean measured concentration ([3]; nominal 1500 ng/mL): 1480 ng/mL
Accuracy vs fresh QCs ([4]; nominal 15 ng/mL): 98.3%
Accuracy vs. nominal concentration ([4]; nominal 15 ng/mL): 100%
Mean measured concentration ([4]; nominal 15 ng/mL): 15.0 ng/mL
Accuracy vs fresh QCs ([4]; nominal 1500 ng/mL): 97.1%
Accuracy vs. nominal concentration ([4]; nominal 1500 ng/mL): 97.1%
Mean measured concentration ([4]; nominal 1500 ng/mL): 1457 ng/mL
Accuracy vs fresh QCs ([5]; 3 months, nominal 15 ng/mL): 106%
Accuracy vs. nominal concentration ([5]; 3 months, nominal 15 ng/mL): 102%
Mean measured concentration ([5]; 3 months, nominal 15 ng/mL): 15.3 ng/mL
Accuracy vs fresh QCs ([5]; 3 months, nominal 150 ng/mL): 105%
Accuracy vs. nominal concentration ([5]; 3 months, nominal 150 ng/mL): 98.7%
Mean measured concentration ([5]; 3 months, nominal 150 ng/mL): 148 ng/mL
Accuracy vs fresh QCs ([5]; 3 months, nominal 1500 ng/mL): 104%
Accuracy vs. nominal concentration ([5]; 3 months, nominal 1500 ng/mL): 94.2%
Mean measured concentration ([5]; 3 months, nominal 1500 ng/mL): 1413 ng/mL
Accuracy vs fresh QCs ([5]; 7 months, nominal 15 ng/mL): 90.3%
Accuracy vs. nominal concentration ([5]; 7 months, nominal 15 ng/mL): 98.4%
Mean measured concentration ([5]; 7 months, nominal 15 ng/mL): 14.8 ng/mL
Accuracy vs fresh QCs ([5]; 7 months, nominal 150 ng/mL): 86.0%
Accuracy vs. nominal concentration ([5]; 7 months, nominal 150 ng/mL): 106%
Mean measured concentration ([5]; 7 months, nominal 150 ng/mL): 160 ng/mL
Accuracy vs fresh QCs ([5]; 7 months, nominal 1500 ng/mL): 88.8%
Accuracy vs. nominal concentration ([5]; 7 months, nominal 1500 ng/mL): 93.6%
Mean measured concentration ([5]; 7 months, nominal 1500 ng/mL): 1403 ng/mL
Accuracy vs fresh QCs ([5]; 12 months, nominal 15 ng/mL): 107%
Accuracy vs. nominal concentration ([5]; 12 months, nominal 15 ng/mL): 105%
Mean measured concentration ([5]; 12 months, nominal 15 ng/mL): 15.7 ng/mL
Accuracy vs fresh QCs ([5]; 12 months, nominal 150 ng/mL): 105%
Accuracy vs. nominal concentration ([5]; 12 months, nominal 150 ng/mL): 108%
Mean measured concentration ([5]; 12 months, nominal 150 ng/mL): 161 ng/mL
Accuracy vs fresh QCs ([5]; 12 months, nominal 1500 ng/mL): 101%
Accuracy vs. nominal concentration ([5]; 12 months, nominal 1500 ng/mL): 108%
Mean measured concentration ([5]; 12 months, nominal 1500 ng/mL): 1613 ng/mL
Structure (SMILES): CN(C)C(=O)c1cc2cnc(Nc3ccc(N4CCNCC4)cn3)nc2n1C1CCCC1 [Ribociclib, ribociclib]
Proposed target Cmin for TDM [6]: 711 ng/mL
